Laboratory results published in PubChem BioAssay (NCI).
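In this assay, cells in 96-well plates receive the compound at five concentrations for 48 hours. Endpoints are linearly interpolated between the surrounding concentrations. GI50: concentration for 50% inhibition of growth. Definition used: TGI = concentration required for complete inhibition of growth.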

Columns and labels:
Experiment in all cases: NCI-60 cell line screen, 48 h
[1] = system: 786-0 renal
[2] = system: A498 renal
[3] = system: A549 NSCLC
[4] = system: ACHN renal
[5] = system: BT-549 breast
[6] = system: CAKI-1 renal
[7] = system: CCRF-CEM leukemia
[8] = system: COLO 205 colon
[9] = system: DU-145 prostate
[10] = system: EKVX NSCLC
[11] = system: HCC-2998 colon
[12] = system: HCT-116 colon
[13] = system: HCT-15 colon
[14] = system: HL-60(TB) leukemia
[15] = system: HOP-62 NSCLC
[16] = system: HOP-92 NSCLC
[17] = system: HS 578T breast
[18] = system: IGROV1 ovarian
[19] = system: K-562 leukemia
[20] = system: KM12 colon
[21] = system: LOX IMVI melanoma
[22] = system: M14 melanoma
[23] = system: MALME-3M melanoma
[24] = system: MCF7 breast
[25] = system: MDA-MB-231 breast
[26] = system: MDA-MB-435
[27] = system: NCI-H226 lung
[28] = system: NCI-H23 lung
[29] = system: NCI-H460 lung
[30] = system: NCI-H522 lung
[31] = system: NCI/ADR-RES ovarian
[32] = system: OVCAR-3 ovarian
[33] = system: OVCAR-5 ovarian
[34] = system: OVCAR-8 ovarian
[35] = system: PC-3 prostate
[36] = system: RPMI-8226 leukemia
[37] = system: RXF 393 renal
[38] = system: SF-268 CNS
[39] = system: SF-295 CNS
[40] = system: SF-539 CNS
[41] = system: SK-MEL-2 melanoma
[42] = system: SK-MEL-5 melanoma
[43] = system: SK-OV-3 ovarian
[44] = system: SN12C renal
[45] = system: SNB-19 CNS
[46] = system: SW-620 colon
[47] = system: T-47D breast
[48] = system: TK-10 renal
[49] = system: U251 CNS
[50] = system: UACC-257 melanoma
[51] = system: UACC-62 melanoma
[52] = system: UO-31 renal
[53] = system: HT29 colon
[54] = system: MOLT-4 leukemia
[55] = system: OVCAR-4 ovarian
[56] = system: SK-MEL-28 melanoma
[57] = system: SNB-75 CNS

`O=C(OC(CNc1c(C(=O)c2ccccc2)c(=O)n(Cc2ccccc2)c(=O)n1Cc1ccccc1)CN1CCOCC1)c1ccccc1` (stereo unspecified) was tested, and the GI50 [1] was 70.4 µM, the TGI [1] was > 100 µM and the GI50 [2] was 37.4 µM. The TGI [2] was > 100 µM, the GI50 [3] was 49.3 µM and the TGI [3] was > 100 µM. For the same molecule, the GI50 [4] was 46.8 µM, the TGI [4] was > 100 µM and the GI50 [5] was 41.3 µM. The TGI [5] was > 100 µM, the GI50 [6] was 34.7 µM and the TGI [6] was > 100 µM. The GI50 [7] was 33.9 µM, the TGI [7] was > 100 µM and the GI50 [8] was 46.3 µM. For the same molecule, the TGI [8] was > 100 µM, the GI50 [9] was > 100 µM and the TGI [9] was > 100 µM. For the same molecule, the GI50 [10] was 52.9 µM, the TGI [10] was > 100 µM and the GI50 [11] was 47.4 µM. The TGI [11] was > 100 µM, the GI50 [12] was 41.1 µM and the TGI [12] was > 100 µM. For the same molecule, the GI50 [13] was 38.5 µM, the TGI [13] was > 100 µM and the GI50 [14] was 30.9 µM. The TGI [14] was > 100 µM, the GI50 [15] was 55.5 µM and the TGI [15] was > 100 µM. The GI50 [16] was 29.6 µM, the TGI [16] was > 100 µM and the GI50 [17] was 40.2 µM. For the same molecule, the TGI [17] was > 100 µM, the GI50 [18] was 65.2 µM and the TGI [18] was > 100 µM. The GI50 [19] was 32.3 µM, the TGI [19] was > 100 µM and the GI50 [20] was 42.1 µM. For the same molecule, the TGI [20] was > 100 µM, the GI50 [21] was 59 µM and the TGI [21] was > 100 µM. The GI50 [22] was 38.4 µM, the TGI [22] was > 100 µM and the GI50 [23] was > 100 µM. For the same molecule, the TGI [23] was > 100 µM, the GI50 [24] was 48.1 µM and the TGI [24] was > 100 µM. The GI50 [25] was 42.8 µM, the TGI [25] was > 100 µM and the GI50 [26] was 86.7 µM. For the same molecule, the TGI [26] was > 100 µM, the GI50 [27] was 49.9 µM and the TGI [27] was > 100 µM. The GI50 [28] was 43.2 µM, the TGI [28] was > 100 µM and the GI50 [29] was 46.2 µM. The TGI [29] was > 100 µM, the GI50 [30] was 47.2 µM and the TGI [30] was > 100 µM. The GI50 [31] was 47.7 µM, the TGI [31] was > 100 µM and the GI50 [32] was 34.1 µM. For the same molecule, the TGI [32] was > 100 µM, the GI50 [33] was > 100 µM and the TGI [33] was > 100 µM. For the same molecule, the GI50 [34] was 64.7 µM, the TGI [34] was > 100 µM and the GI50 [35] was 38.6 µM. The TGI [35] was > 100 µM, the GI50 [36] was 26.8 µM and the TGI [36] was 82.8 µM. For the same molecule, the GI50 [37] was 34.7 µM, the TGI [37] was > 100 µM and the GI50 [38] was > 100 µM. The TGI [38] was > 100 µM, the GI50 [39] was 41.6 µM and the TGI [39] was > 100 µM. The GI50 [40] was 91.8 µM, the TGI [40] was > 100 µM and the GI50 [41] was 56.7 µM. The TGI [41] was > 100 µM, the GI50 [42] was 37.7 µM and the TGI [42] was > 100 µM. For the same molecule, the GI50 [43] was > 100 µM, the TGI [43] was > 100 µM and the GI50 [44] was 50.7 µM. For the same molecule, the TGI [44] was > 100 µM, the GI50 [45] was 71.3 µM and the TGI [45] was > 100 µM. The GI50 [46] was 76.4 µM, the TGI [46] was > 100 µM and the GI50 [47] was > 100 µM. For the same molecule, the TGI [47] was > 100 µM, the GI50 [48] was 69 µM and the TGI [48] was > 100 µM. The GI50 [49] was 42.3 µM, the TGI [49] was > 100 µM and the GI50 [50] was 76.8 µM. The TGI [50] was > 100 µM, the GI50 [51] was 38.8 µM and the TGI [51] was > 100 µM. The GI50 [52] was 52.8 µM and the TGI [52] was > 100 µM.
`COc1cc2c3c(n(CCCN=[N+]=[N-])c(=O)c2cc1OC)-c1ccc(C#N)cc1C3=O` showed a GI50 [1] of 13.1 µM, a TGI [1] of 33.7 µM and a GI50 [2] of 18.5 µM. The TGI [2] was 58.5 µM, the GI50 [3] was > 100 µM and the TGI [3] was > 100 µM. For the same molecule, the GI50 [4] was 3.3 µM, the TGI [4] was 13.1 µM and the GI50 [5] was 12.9 µM. For the same molecule, the TGI [5] was 28 µM, the GI50 [6] was 32 µM and the TGI [6] was > 100 µM. The GI50 [7] was > 100 µM, the TGI [7] was > 100 µM and the GI50 [8] was 92.3 µM. The TGI [8] was > 100 µM, the GI50 [9] was 34.3 µM and the TGI [9] was > 100 µM. The GI50 [10] was 28.9 µM, the TGI [10] was > 100 µM and the GI50 [11] was 44.6 µM. For the same molecule, the TGI [11] was > 100 µM, the GI50 [12] was 24.1 µM and the TGI [12] was > 100 µM. The GI50 [13] was 57.9 µM, the TGI [13] was > 100 µM and the GI50 [14] was > 100 µM. The TGI [14] was > 100 µM, the GI50 [15] was 14.2 µM and the TGI [15] was 33.3 µM. It also gave a GI50 [16] of 21.2 µM, a TGI [16] of 79.1 µM and a GI50 [17] of 9.67 µM. The TGI [17] was 38.9 µM, the GI50 [53] was > 100 µM and the TGI [53] was > 100 µM. The GI50 [19] was > 100 µM, the TGI [19] was > 100 µM and the GI50 [20] was > 100 µM. The TGI [20] was > 100 µM, the GI50 [21] was 16.9 µM and the TGI [21] was 46 µM. For the same molecule, the GI50 [22] was 46.7 µM, the TGI [22] was > 100 µM and the GI50 [23] was 70.8 µM. For the same molecule, the TGI [23] was > 100 µM, the GI50 [24] was > 100 µM and the TGI [24] was > 100 µM. For the same molecule, the GI50 [25] was 2.93 µM, the TGI [25] was 16.2 µM and the GI50 [26] was > 100 µM. The TGI [26] was > 100 µM, the GI50 [54] was > 100 µM and the TGI [54] was > 100 µM. For the same molecule, the GI50 [27] was 42.1 µM, the TGI [27] was > 100 µM and the GI50 [28] was 8.75 µM. The TGI [28] was 22 µM, the GI50 [29] was 27.7 µM and the TGI [29] was > 100 µM. The GI50 [30] was 14.5 µM, the TGI [30] was > 100 µM and the GI50 [31] was 72.4 µM. For the same molecule, the TGI [31] was > 100 µM, the GI50 [32] was 17 µM and the TGI [32] was 58.2 µM. The GI50 [55] was > 100 µM, the TGI [55] was > 100 µM and the GI50 [33] was 88.7 µM. For the same molecule, the TGI [33] was > 100 µM, the GI50 [34] was 49.1 µM and the TGI [34] was > 100 µM. The GI50 [35] was > 100 µM, the TGI [35] was > 100 µM and the GI50 [36] was > 100 µM. The TGI [36] was > 100 µM, the GI50 [37] was 12.2 µM and the TGI [37] was 30.2 µM. For the same molecule, the GI50 [38] was 17.7 µM, the TGI [38] was > 100 µM and the GI50 [39] was 14.1 µM. It also gave a TGI [39] of 31.5 µM, a GI50 [40] of 17.4 µM and a TGI [40] of 47.2 µM. For the same molecule, the GI50 [41] was 16.6 µM, the TGI [41] was 86.1 µM and the GI50 [56] was > 100 µM. For the same molecule, the TGI [56] was > 100 µM, the GI50 [42] was > 100 µM and the TGI [42] was > 100 µM. The GI50 [43] was 15.5 µM, the TGI [43] was 40.3 µM and the GI50 [44] was 15.7 µM. The TGI [44] was > 100 µM, the GI50 [45] was 37 µM and the TGI [45] was > 100 µM. For the same molecule, the GI50 [57] was 4.27 µM, the TGI [57] was 21.4 µM and the GI50 [46] was > 100 µM. For the same molecule, the TGI [46] was > 100 µM, the GI50 [47] was > 100 µM and the TGI [47] was > 100 µM. The GI50 [48] was 17 µM, the TGI [48] was 34.9 µM and the GI50 [49] was 10.5 µM. The TGI [49] was 27.6 µM, the GI50 [50] was > 100 µM and the TGI [50] was > 100 µM. The GI50 [51] was 12.4 µM, the TGI [51] was 37.4 µM and the GI50 [52] was > 100 µM. The TGI [52] was > 100 µM.
